{"source": "paper PMC12037037", "about": "(Proceedings of the National Academy of Sciences of the …, 2025)", "key": {"[1]": {"test_system": "panel of 55 central nervous system targets", "assay": "Competitive radioligand binding selectivity panel (Eurofins Discovery)", "procedure": "Figure S3. Selectivity profiles for (+)-JRT and (–)-JRT across 55 central nervous system targets. The effects of (+)- JRT (10 μM) and (–)-JRT (10 μM) on a wide range of targets were assessed by Eurofins Discovery. Data represent % inhibition of the binding of a radioactively labeled ligand specific for each target. Assays were conducted in duplicate and the results were averaged.\nData Analysis and Statistics. Treatments were randomized, and data were analyzed by experimenters blinded to treatment conditions. Statistical analyses were performed using GraphPad Prism (version 10.0.3) unless noted otherwise.\nAll comparisons were planned prior to performing each experiment. No data were excluded. Data are represented as mean ± SEM, unless noted otherwise, with asterisks indicating *p < 0.05, **p < 0.01, ***p < 0.001, and ****p < 0.0001. Details of all statistical tests are shown in SI Appendix, Table S1. […]\nBoth (+)-JRT and (–)-\nJRT were synthesized in-house and judged to be analytically pure based on NMR and LC-MS data. For cell culture experiments, VEH = 0.1% (agonist studies) or 0.2% (antagonist studies) molecular biology grade dimethyl sulfoxide (Sigma-Aldrich). For in vivo experiments, compounds were administered i.p. at 5 mL/kg using 0.9% saline as the vehicle, unless noted otherwise. VEH = USP grade saline (0.9%). Stock solutions for behavioral assays were prepared fresh before use.\nFumarate salts of (+)-JRT and (–)-JRT were used for all biological studies unless noted otherwise.\nAnimals. All experimental procedures involving animals were approved by the Institutional Animal Care and Use Committee (IACUC) at the University of California, Davis, the Salk Institute, Weill Cornell Medicine, McLean Hospital (Harvard Medical School), or the Contract Research Organization (CRO) where the study was performed. All procedures involving animals adhered to principles described in the National Institutes of Health Guide for the Care and Use of Laboratory Animals.\nAnimals were either obtained from Jackson Laboratory (Sacramento, C.A.) or bred in-house unless noted otherwise. Power analyses were conducted to ensure appropriate sample sizes for all experiments involving animals. Animals were housed 2–5 animals of the same sex per cage on a 12h light/dark cycle and were given ad libitum access to food and water unless noted otherwise. The University of California, Davis, the Salk Institute, and Weill Cornell Medicine are accredited by the Association for Assessment and Accreditation of Laboratory Animal Care International (AAALAC). Whenever possible, both sexes were utilized. However, a single sex was utilized in some cases when 1) a contract research organization had only […]\nRadioligand Binding Selectivity Panel. Competitive radioligand binding studies for (+)-JRT (10 μM) and (–)-JRT (10 μM) were performed across a panel of receptors at Eurofins Discovery. Experiments were performed using the free bases of […]\nradioligand and source of receptor (5,6,7,8,9,10,11,12).\nRadioligand Binding Assays (5-HT2AR and 5-HT2CR). The 5-HT2AR and 5-HT2CR competitive radioligand binding assays were performed at Epics Therapeutics S.A. (Belgium, FAST-0505B) using conventional methods. Experiments were performed using the free bases of (+)-JRT and (–)-JRT. […] Nonspecific binding was determined by co-incubation with 200-fold excess of cold competitor DOI. […]"}, "C57BL/6J mice": {"test_system": "C57BL/6J mice", "assay": "Amphetamine-induced locomotion", "format": "in vivo", "settings": "VEH + AMPH 3 mg/kg", "procedure": "Figure S11. […] (A) Pretreatment with (+)-JRT (1 mg/kg,\n(§1) IP) can block AMPH-induced hyperlocomotion in female, but not male, mice. (B) Pretreatment with (+)-JRT (1 mg/kg, IP) […]\n(§2) AMPH = (+)-amphetamine; PCP = phencyclidine; VEH = vehicle; ns = not significant. *p < 0.05, **p < 0.01, ***p < 0.001, ****p < 0.0001, as compared to the comparator(s) indicated by a horizontal bar. See Methods and SI Appendix, Table S1 for full details on statistics.\n(1 picture or pasted object on this page, not shown here)\nAmphetamine-Induced Locomotion. The amphetamine-induced hyperlocomotion assay was performed using male and female C57BL/6J mice that were approximately 8 weeks old at the time of the experiments. Animals were first placed in the test arena (40 cm x 40 cm) for 15 min to obtain a basal reading of locomotion and habituate them to the testing arena.\nNext, animals were administered (+)-JRT (1 mg/kg) or VEH (2.5 mL/kg, i.p) and placed back in the test arena. After 15 min, the animals were administered (+)-amphetamine (3 mg/kg) or VEH (2.5 mL/kg) and placed back in the test arena for 60 minutes. Locomotion during the entire experiment was quantified using ANYmaze Video Tracking System, version 7.07 (Stoelting Co.). The test arena was cleaned thoroughly with 70% ethanol between trials. […]\n(§3) Reads were aligned to the GRCm39 genome assembly using STAR, processed with Picard, and counted with the Subread software. Transcript inclusion criteria consisted of a minimum raw expression level of 25 transcripts in a minimum of 4 samples. Surrogate variable analysis was conducted with the sva package 2023 release v3.5.0 in R and normalization and differential expression analysis was performed with DESeq2 v4.3 with a baseMean threshold of 10. Heatmaps were created with the pheatmap v1.0.12 with sample-wise z-scores plotted and both row and column grouping allowed using pearson's distances and ward.D for clustering. Gene-wise selection criteria for heatmaps were a baseMean expression threshold of 50 to focus on robustly expressed genes, p value < 0.05, and presence in the top 250 genes sorted by absolute value of log2FC. Additionally, z score was capped at 2 for visualization purposes. Schizophrenia gene sets were extracted from a recent TWAS study (30).\n(§4) For Figure S8G, the TWAS set was filtered for FDR < 0.01. Permutation testing was conducted to quantify the overlap of top genes from schizophrenia TWAS with the perm_test function from the bulkWarehouse package 2023 release v1.2.7.\n(§5) Briefly, the intersection of top differentially expressed genes and top TWAS genes is compared to an empirical distribution created by calculating the intersection with our top DEGs when randomly sampling candidate genes from our dataset equal to the size of the TWAS sample. […]"}, "[2]": {"test_system": "cultured rat embryonic cortical neurons", "assay": "Neuritogenesis assay (Sholl analysis, DIV6)", "format": "cell-based", "settings": "1 µM, DIV6, mean ± SEM", "protocol": "Figure S8. […] (A) Sholl analysis of embryonic day 18 (E18) rat cortical\n(D) Area under the curves of the Sholl plots\nN values are shown within the bars. VEH =\nNeuritogenesis Assays. Neuritogenesis Assays were performed as previously described (17) with slight modifications.\nBriefly, 96 well plates were coated with poly-D-lysine and approximately 15,000 cells/well. Neurons were treated after 3 days in vitro (DIV3) for 1 h followed by a complete media change. Cells were incubated for an additional 3 days before fixing and staining for MAP2 on DIV6. Neurites were visualized using a chicken anti-MAP2 antibody (1:10,000; EnCor, CPCA-MAP2) and an anti-chicken IgG secondary antibody conjugated to Alexa Fluor 488 (Life Technologies, 1:500). Plates were imaged in DPBS on a Thermo Scientific CellInsight CX7 High-Content Screening Platform at 20x (N.A. = 0.45). Images were analyzed using the Simple Neurite Tracer and Sholl analysis plug-ins for ImageJ Fiji (version 1.51N). Sholl analysis circle radii = 2 µm increments. All images were taken and analyzed by an experimenter blinded to treatment conditions."}, "male Sprague Dawley rats": {"test_system": "male Sprague Dawley rats", "assay": "Rat forced swim test (FST)", "format": "in vivo", "settings": "10mg/kg IP, 24 h after administration", "procedure": "as §3, §4\nBriefly, the intersection of top differentially expressed genes and top TWAS genes is compared to an empirical distribution created by calculating the intersection with our top DEGs when randomly sampling candidate genes from our dataset equal to the size of the TWAS sample. Selection criteria from the TWAS include an expression level of 25 transcripts in a minimum of 4 samples in our dataset, FDR < 0.01 from the TWAS and top 250 sorted by absolute value of log2FC. Selection criteria from our gene set were an expression level of 25 transcripts in a minimum of 4 samples, p value < 0.1 and top 250 sorted by absolute value of log2FC.\nRat Forced Swim Test (FST). This study was performed by Psychogenics (Paramus, NJ). Male Sprague Dawley rats were purchased from Envigo (Indianapolis, IN), and were 8 weeks old at the time of the experiments. Upon receipt, they were assigned unique identification numbers (tail marked) and group housed in ventilated cages with 3 rats per cage. All animals […]\nremained housed in groups of three for the remainder of the study. All rats were acclimated to the colony room for up to one week prior to dosing. During the period of acclimation, rats were examined and handled daily, and weighed to assure adequate health and suitability. The room temperature was maintained between 20 °C and 23 °C with a relative humidity of 30%–70%. Lab Rodent Diet 5001 (W.F. Fisher, Cat # 11015) and water were provided ad libitum. Animals were randomly assigned across treatment groups. All testing was performed during the light phase of the light/dark cycle. Behavioral testing was conducted according to established protocols approved by the IACUC committee and PGI Standard Operation Procedures (SOP). Each forced swim chamber was constructed of clear acrylic (height = 40 cm; diameter = 20.3 cm). Only one rat was placed in the swim chamber at a time for each swim test. The water was changed and the chamber cleaned between each animal. The water depth was 16 cm in the first swim session (pre-test) and 30 cm in the second swim session (test). The water was maintained at 23 °C ± 1 °C for all swim sessions. At the end of each swim test rats were dried with paper towels and returned to the home cage. All animals were carefully monitored to ensure their safety in the swim test and any animal unable to maintain a posture with its nose above water was immediately removed from the water and not used further in the study. Animals were first subjected to a pre-test for 15 min. Immediately after the pre-test, they were administered compounds or VEH via i.p. injection (1 ml/kg). Racemic ketamine hydrochloride (10 mg/kg) was used as a positive control. A salt correction factor of 1.36 was used when preparing formulations of (+)-JRT to ensure that the dose corresponded to that of the free base. […]"}, "male Long Evans rats": {"test_system": "male Long Evans rats", "assay": "Probabilistic reward task (PRT) under chronic cold-water stress", "format": "in vivo", "settings": "KET 10 mg/kg IP"}, "male C57BL/6J mice": {"test_system": "male C57BL/6J mice", "assay": "PCP-induced locomotion (Psychogenics)", "format": "in vivo", "settings": "VEH + PCP 5 mg/kg IP; VEH + VEH 11101 ± 1709", "procedure": "as §1, §2\n(1 picture or pasted object on this page, not shown here) […]\nPCP-Induced Locomotion. The PCP-induced hyperlocomotion assay was performed by Psychogenics using male C57BL/6J mice that were approximately 8 weeks old at the time of the experiments. The experiment was performed during the animal’s light cycle phase. On the day of testing, animals were acclimated to the experimental room for at least 1 h prior to treatment. Animals were then administered with VEH or JRT (IP, 10 mL/kg) and placed in holding cages for 30 min, after which mice were placed in the open field chambers (27.3 x 27.3 x 30.3; Med Associates Inc., St Albans, VT). Baseline activity was recorded for 30 min. Next, mice received either PCP (5 mg/kg, IP, 10 ml/kg) or VEH and were returned to the open field chambers for a 60 min test session. Locomotion was assessed using consecutive infrared beam breaks. At the end of each session, the chambers were thoroughly cleaned. […]\nas §3, §4, §5"}}}
{"smiles": "CCN(CC)C(=O)[C@H]1C=C2c3cccc4ccn(c34)C[C@@H]2N(C)C1", "note": "[(–)-JRT]", "values": [{"measurement": "Selectivity across panel of 55 central nervous system targets", "setting": "[1]; 10 μM, free bases", "value": "highly selective for a subset of serotonin receptors"}, {"measurement": "Affinity for dopamine, histamine, or adrenergic receptors", "setting": "[1]; radioligand binding, unlike LSD", "value": "neither of these compounds exhibited affinity"}]}
{"smiles": "C[C@H](N)Cc1ccccc1", "note": "[AMPH, (+)-amphetamine, reference compound]", "values": [{"measurement": "Locomotion (Figure 11A Females)", "setting": "C57BL/6J mice; female mice, VEH + VEH 101.9 ± 15.04", "value": "418.5 ± 32.97"}, {"measurement": "Locomotion (Figure 11A Males)", "setting": "C57BL/6J mice; male mice, VEH + VEH 59.80 ± 4.206", "value": "330.5 ± 74.31"}]}
{"smiles": "CN1CCN(C2=Nc3cc(Cl)ccc3Nc3ccccc32)CC1", "note": "[CLZ, clozapine, reference compound]", "values": [{"measurement": "Area under the curves of the Sholl plots (Figure S8D)", "setting": "[2]; VEH 1.000 ± 0.05010", "value": "1.045 ± 0.04563"}, {"measurement": "Total branches (Figure S8C)", "setting": "[2]; VEH 2.325 ± 0.2641", "value": "3.280 ± 0.2858"}, {"measurement": "Number of primary dendrites (Figure S8B)", "setting": "[2]; VEH 6.275 ± 0.2292", "value": "7.620 ± 0.2586"}]}
{"smiles": "CNC1(c2ccccc2Cl)CCCCC1=O", "note": "(centres unmarked) [Ketamine, ketamine, reference compound]", "values": [{"measurement": "Swimming (Figure 6B)", "setting": "male Sprague Dawley rats; VEH 22.10 ± 1.929", "value": "34.10 ± 1.187"}, {"measurement": "Immobility (Figure 6B)", "setting": "male Sprague Dawley rats; VEH 37.20 ± 1.867, of 60 scored behaviors", "value": "25.00 ± 1.265"}, {"measurement": "Response bias (log b) (Figure 6G)", "setting": "male Long Evans rats; Day 2, Day 1 0.120 ± 0.042", "value": "0.330 ± 0.035"}, {"measurement": "Response bias (log b) (Figure 6G)", "setting": "male Long Evans rats; Day 3, Day 1 0.120 ± 0.042", "value": "0.304 ± 0.091"}, {"measurement": "Response bias (log b) (Figure 6G)", "setting": "male Long Evans rats; Day 11, Day 1 0.120 ± 0.042", "value": "0.266 ± 0.086"}, {"measurement": "Response bias (log b) (Figure 6G)", "setting": "male Long Evans rats; Day 1 (stressed, before drug) 0.120 ± 0.042", "value": "0.457 ± 0.070"}]}
{"smiles": "c1ccc(C2(N3CCCCC3)CCCCC2)cc1", "note": "[PCP, phencyclidine, reference compound]", "values": [{"measurement": "Locomotion, infrared beam breaks (Figure 11B)", "setting": "male C57BL/6J mice", "value": "26552 ± 1179"}]}
